How the values were obtained:
[1] = test system: Brain COMT; experiment: Ex vivo COMT activity in mouse brain homogenates after administration of test compound by gastric tube; parameters: species or system NMRI mice; conditions: for Brain COMT (% of control) 1h / Brain COMT (% of control) 6h: homogenates of mice brain, dose not given, means±S.E.M. of 4-8 experiments; for Brain COMT (% of control) 1h: 1 h after administration by gastric tube; for Brain COMT (% of control) 6h: 6 h after administration by gastric tube; for activity in the brain: conclusion, statement in words
[2] = test system: Liver COMT; experiment: Ex vivo COMT activity in mouse liver homogenates after administration of test compound by gastric tube; parameters: species or system NMRI mice; conditions: for Liver COMT (% of control) 1h / Liver COMT (% of control) 6h: homogenates of mice liver, dose not given, means±S.E.M. of 4-8 experiments; for Liver COMT (% of control) 1h: 1 h after administration by gastric tube; for Liver COMT (% of control) 6h: 6 h after administration by gastric tube; for potency upon liver COMT compared with brain COMT: mice, after oral administration, statement in words
[3] = molecular target: T1, COMT (Homo sapiens, UniProt P21964); experiment: COMT activity in intact SK-N-SH cells (methylation of adrenaline to metanephrine, HPLC with electrochemical detection); assay type: cell-based; conditions: concentration of test compound 100 nM, means ±SEM of n=4-8
T1 construct: COMT activity was evaluated in cell monolayers by the ability to methylate adrenaline; host or cells: SK-N-SH
T1 sequence (P21964 1-271): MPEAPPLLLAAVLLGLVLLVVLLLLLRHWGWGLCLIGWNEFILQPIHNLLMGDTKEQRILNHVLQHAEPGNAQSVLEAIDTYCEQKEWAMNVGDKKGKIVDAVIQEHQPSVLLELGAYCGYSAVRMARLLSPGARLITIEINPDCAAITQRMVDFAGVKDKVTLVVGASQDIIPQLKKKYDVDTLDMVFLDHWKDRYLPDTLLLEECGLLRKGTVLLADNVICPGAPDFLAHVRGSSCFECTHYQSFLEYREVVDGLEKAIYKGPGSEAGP

SMILES | Brain COMT (% of control) 1h [1] | Brain COMT (% of control) 6h [1] | Liver COMT (% of control) 1h [2] | Liver COMT (% of control) 6h [2] | COMT activity (% of control) [3] | activity in the brain [1] | potency upon liver COMT compared with brain COMT [2]
CC1CC(C)CN(CC(=O)c2cc(O)c(O)c([N+](=O)[O-])c2)C1.Cl (stereo not drawn) [Compound 12, 1-(3,4-Dihydroxy-5-nitro-phenyl)-2-(3,5-dimethyl-piperidin-1-yl)-ethanone hydrochloride] | 32.0±2.0 % of control | 84.0±6.0 % of control | 33.0±2.0 % of control | 52.0±13.0 % of control | 15.4±1.8 % of control | – | –
Cl.O=C(CCN1CCCCCC1)c1cc(O)c(O)c([N+](=O)[O-])c1 [Compound 20, 3-Azepan-1-yl-1-(3,4-dihydroxy-5-nitro-phenyl)-propan-1-one hydrochloride] | 106.0±9.0 % of control | 125.0±5.0 % of control | 39.0±2.0 % of control | 64.0±12.0 % of control | 3.6±0.3 % of control | – | –
COc1ccc(OCC(=O)c2cc(O)c(O)c([N+](=O)[O-])c2)cc1 [Compound 9, 1-(3,4-Dihydroxy-5-nitro-phenyl)-2-(4-methoxy-phenoxy)-ethanone] | 59.0±6.0 % of control | 93.0±9.0 % of control | 29.0±1.0 % of control | 35.0±6.0 % of control | 12.8±0.4 % of control | – | –
O=C(COc1ccccc1)c1cc(O)c(O)c([N+](=O)[O-])c1 [Compound 8, 1-(3,4-Dihydroxy-5-nitro-phenyl)-2-phenoxy-ethanone] | 61.0±4.0 % of control | 104.4±6.2 % of control | 22.0±3.7 % of control | 49.6±9.4 % of control | 8.6±0.1 % of control | – | –
Cl.O=C(CC(c1ccccc1)N1CCCCC1)c1cc(O)c(O)c([N+](=O)[O-])c1 (stereo not drawn) [Compound 3, 1-(3,4-Dihydroxy-5-nitro-phenyl)-3-phenyl-3-piperidin-1-yl-propan-1-one hydrochloride] | 81.0±11.0 % of control | 71.0±11.0 % of control | 13.5±3.2 % of control | 13.6±3.2 % of control | 7.2±1.9 % of control | limited activity in the brain | much more potent upon liver COMT than brain COMT
Cl.O=C(CC(c1ccccc1)N1CCOCC1)c1cc(O)c(O)c([N+](=O)[O-])c1 (stereo not drawn) [Compound 5, 1-(3,4-Dihydroxy-5-nitro-phenyl)-3-morpholin-4-yl-3-phenyl-propan-1-one hydrochloride] | 38.6±6.4 % of control | 57.2±5.1 % of control | 16.7±1.6 % of control | 35.2±9.6 % of control | 40.2±8.7 % of control | – | equally potent in inhibiting liver and brain COMT activity
Cl.Cl.Cl.O=C(CN1CCN(c2ccccn2)CC1)c1cc(O)c(O)c([N+](=O)[O-])c1 [Compound 14, 1-(3,4-Dihydroxy-5-nitro-phenyl)-2-(4-pyridin-2-yl-piperazin-1-yl)-ethanone trihydrochloride] | 95.4±11.4 % of control | 121.2±11.8 % of control | 33.6±5.6 % of control | 50.3±5.6 % of control | 8.5±0.3 % of control | – | –
Cl.O=C(CCN1CCC(Cc2ccccc2)CC1)c1cc(O)c(O)c([N+](=O)[O-])c1 [Compound 24, 3-(4-Benzyl-piperidin-1-yl)-1-(3,4-dihydroxy-5-nitro-phenyl)-propan-1-one hydrochloride] | 33.0±8.0 % of control | 98.0±2.0 % of control | 16.5±1.5 % of control | 37.7±3.9 % of control | 0.0±0.0 % of control | – | –
Cl.Cl.Cl.Cl.O=C(CCN1CCN(c2ncccn2)CC1)c1cc(O)c(O)c([N+](=O)[O-])c1 [Compound 23, 1-(3,4-Dihydroxy-5-nitro-phenyl)-3-(4-pyrimidin-2-yl-piperazin-1-yl)-propan-1-one tetrahydrochloride] | 87.0±6.0 % of control | 123.0±12.0 % of control | 30.0±2.5 % of control | 56.3±6.0 % of control | 4.4±0.9 % of control | – | –
Cl.O=C(CN1CCc2ccccc2C1)c1cc(O)c(O)c([N+](=O)[O-])c1 [Compound 21, 2-(3,4-Dihydro-1H-isoquinolin-2-yl)-1-(3,4-dihydroxy-5-nitro-phenyl)-ethanone hydrochloride] | 96.0±8.0 % of control | 104.0±17.0 % of control | 55.1±5.0 % of control | 77.5±18.0 % of control | 0.9±0.6 % of control | – | –
Cl.O=C(CCN1CCCCC1)c1cc(O)c(O)c([N+](=O)[O-])c1 [Compound 2, 1-(3,4-Dihydroxy-5-nitro-phenyl)-3-piperidin-1-yl-propan-1-one hydrochloride] | 80.0±11.0 % of control | 95.0±12.0 % of control | 24.6±4.8 % of control | 56.9±17.7 % of control | 7.5±0.6 % of control | limited activity in the brain | much more potent upon liver COMT than brain COMT
Cl.N#CC1(c2ccccc2)CCN(CCC(=O)c2cc(O)c(O)c([N+](=O)[O-])c2)CC1 [Compound 15, 1-[3-(3,4-Dihydroxy-5-nitro-phenyl)-3-oxo-propyl]-4-phenyl-piperidine-4-carbonitrile hydrochloride] | 93.0±9.0 % of control | 122.0±9.0 % of control | 51.7±5.9 % of control | 37.9±8.4 % of control | 2.9±0.3 % of control | – | –
O=C(COc1ccc2ccccc2c1)c1cc(O)c(O)c([N+](=O)[O-])c1 [Compound 10, 1-(3,4-Dihydroxy-5-nitro-phenyl)-2-(naphthalen-2-yloxy)-ethanone] | 83.0±5.0 % of control | 119.0±13.0 % of control | 17.3±2.7 % of control | 38.7±4.7 % of control | 2.0±0.1 % of control | limited activity in the brain | much more potent upon liver COMT than brain COMT

— patent EP1167342A1, “Novel substituted nitrocatechols, their use in the treatment of some central and peripheral nervous system disorders and pharmaceutical compositions containing them” (Portela & Ca., S.A., priority 2000, dated 2002)
